Reference: PubChem BioAssay (NCI)
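96-well plates; 48 h exposure; 5 concentrations. Endpoints by linear interpolation between flanking doses. Not reached: highest tested concentration assigned. TGI marks complete inhibition of growth.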

Columns and labels:
Experiment in all cases: growth of human tumour cells (NCI), 48 h
CCRF-CEM leukemia = test system: CCRF-CEM leukemia
DU-145 prostate = test system: DU-145 prostate
HCT-116 colon = test system: HCT-116 colon
HCT-15 colon = test system: HCT-15 colon
HOP-92 NSCLC = test system: HOP-92 NSCLC
K-562 leukemia = test system: K-562 leukemia
KM12 colon = test system: KM12 colon
MALME-3M melanoma = test system: MALME-3M melanoma
MCF7 breast = test system: MCF7 breast
MOLT-4 leukemia = test system: MOLT-4 leukemia
NCI-H23 lung = test system: NCI-H23 lung
NCI/ADR-RES ovarian = test system: NCI/ADR-RES ovarian
OVCAR-8 ovarian = test system: OVCAR-8 ovarian
PC-3 prostate = test system: PC-3 prostate
SK-OV-3 ovarian = test system: SK-OV-3 ovarian
SNB-75 CNS = test system: SNB-75 CNS
SR leukemia = test system: SR leukemia
SW-620 colon = test system: SW-620 colon
U251 CNS = test system: U251 CNS
UACC-257 melanoma = test system: UACC-257 melanoma

Measured: TGI

O=C1NC(N/N=C\C(O)C(O)C(O)C(O)CO)=N/C1=C/c1ccc(Cl)cc1 (stereo not given)
> 100 µM: CCRF-CEM leukemia | DU-145 prostate | HCT-116 colon | HCT-15 colon | HOP-92 NSCLC | K-562 leukemia | KM12 colon | MALME-3M melanoma | MCF7 breast | MOLT-4 leukemia | NCI-H23 lung | NCI/ADR-RES ovarian | OVCAR-8 ovarian | PC-3 prostate | SK-OV-3 ovarian | SNB-75 CNS | SR leukemia | SW-620 colon | U251 CNS | UACC-257 melanoma

COc1ccc2c(C(=O)c3cn(CCN4CCOCC4)c4ccccc34)cccc2c1
85.5 µM: CCRF-CEM leukemia
> 100 µM: DU-145 prostate | HCT-116 colon | HCT-15 colon | HOP-92 NSCLC | K-562 leukemia | KM12 colon | NCI-H23 lung | NCI/ADR-RES ovarian | OVCAR-8 ovarian | PC-3 prostate | SK-OV-3 ovarian | SNB-75 CNS | SR leukemia | SW-620 colon | U251 CNS | UACC-257 melanoma
> 75.7 µM: MALME-3M melanoma
64.4 µM: MOLT-4 leukemia
> 80.2 µM: MCF7 breast

Cc1ncc([N+](=O)[O-])n1CCNCCCCn1ccnc1[N+](=O)[O-]
> 100 µM: CCRF-CEM leukemia | DU-145 prostate | HCT-116 colon | HCT-15 colon | HOP-92 NSCLC | K-562 leukemia | KM12 colon | MALME-3M melanoma | MCF7 breast | MOLT-4 leukemia | NCI-H23 lung | NCI/ADR-RES ovarian | OVCAR-8 ovarian | PC-3 prostate | SK-OV-3 ovarian | SNB-75 CNS | SR leukemia | SW-620 colon | U251 CNS | UACC-257 melanoma
